# Results reported in patent publication US8980914B2, “Therapeutic agent for chronic obstructive pulmonary disease and method for treatment for chronic obstructive pulmonary disease with the same” (Mariposa Health Limited, priority 2003, dated 2015).
# Columns and labels:
# [1] = Peroxynitrite scavenging activity (oxidation of dihydrorhodamine 123); format: biochemical; conditions: oxidation of dihydrorhodamine 123 by peroxynitrite, phosphate buffer pH 7.4; read-out: 50% Inhibitory concentration on oxidation (IC50)
# Description: This test was performed by estimating the antioxidative effect of the test substance using peroxynitrite quantitative method as a test system with dihydrorhodamine 123 so as to confirm the ability of the 7-aminoquinolinone derivatives of the present invention to scavenge peroxynitrite. This is a method described in NITRIC OXIDE: Biology and Chemistry Vol. 1, 145-157, 1997.
# The test substance was weighted in an amount of approximately 10 mg, dissolved in a 10% Tween 80 solution and adjusted to 5×10^−3 mol/L. Then, the solution was diluted with 0.1 mol/L phosphate buffer (pH=7.4) to 5×10^−4 mol/L. The diluent was further diluted stepwise with a phosphate buffer containing 1% Tween 80 to obtain substance solution. The preparation was conducted before use. The final concentration of the test substance was adjusted to 3×10^−6, 1×10^−6, 3×10^−7, 1×10^−7, and 3×10^−8 mol/L, respectively.
# To 20 μL of peroxynitrite solution (manufactured by DOJINDO LABORATORIES), 1980 μL of 0.1 mol/L sodium hydroxide was added and the mixture was diluted 100 times. The absorbance of the maximum absorption wavelength near 300 nm was measured using a UV-visible spectrophotometer and the concentration was calculated according to the following equation. Concentration(mmol/L)=(absorbance/1670)×100×1000
# Based on the concentration calculated in the above section, dilution with a 0.1 mol/L sodium hydroxide solution was conducted and adjusted to 10 mmol/L. 990 μL of a 0.1 mol/L sodium hydroxide solution was taken into a 1.5 mL-Eppen tube. To the Eppen tube, 10 μL of a solution adjusted to 10 mmol/L was added to prepare a 100 μmol/L solution.
# Dihydrorhodamine 123 was dissolved into 1.155 mL of dimethylsulfoxide, and adjusted to the concentration of 25 mmol/L. This solution was dispensed into 20 μL aliquots and then the aliquots were stored in a biomedical freezer (about −20° C.) and used as a stock solution.
# To 490 μL of 0.02% Tween 80 containing 0.1 mol/L phosphate buffer, 10 μL of 25 mmol/L of a thawed dihydrorhodamine 123 stock solution was added to make 500 μmol/L. The prepared solution was diluted with 0.1 mol/L phosphate buffer (pH=7.4) 1000 times to prepare 500 nmol/L of a dihydrorhodamine 123 solution.
# (1) To a 3.5 mL brown vial containing a stirring bar, 1470 μL of a 500 nmol/L dihydrorhodamine 123 solution and then 15 μL of the test substance solution was added. For the blank and control groups, 15 μL of 0.1 mol/L phosphate buffer containing 1% Tween 80, as a solvent for the test substance solution, was added. After the addition, the mixture was stirred with a stirrer for 30 minutes.
# 15 μL of a 100 μmol/L peroxynitrite solution was added while stirring. For the blank group, 15 μL of a 0.1 mol/L sodium hydroxide solution was added. After stirring for 15 minutes, fluorescence intensity was measured.
# Fluorescence intensity of the reaction solution was measured using a spectrophotofluorometer under the following measuring conditions: excitation wavelength, 500 nm; emission wavelength, 536 nm; measuring times, one; response, 1 sec; photomultiplier tube voltage, Low; band width at excitation side, 10 nm; bandwidth at emission side, 10 nm.
# The oxidation rate of dihydrorhodamine 123 when adding the test substance was calculated, taking the oxidation rate of dihydrorhodamine 123 for control as 100, according to the following equation: Oxidation rate (%) of dihydrorhodamine 123=(measured value for each group−measured value for blank)/(measured for control−measured value for blank)×100 Calculation of Oxidation Inhibition Concentration (IC50)
# 50% oxidation concentration, that is 50% oxidation inhibition concentration (IC50) was calculated by giving a straight line from two points surrounding 50% oxidation rate.
# [2] = test system: airway hyper-responsiveness induced by ozone; assay: Airway hyper-responsiveness model induced by inhalation of ozone in guinea pigs (lung resistance after methacholine); format: in vivo; conditions: test substance 30 mg/kg one hour before ozone inhalation, RLung after methacholine inhalation 5 hours after end of ozone exposure
# Description: This test was performed so as to evaluate the pharmacological effect of the 7-aminoquinolinone derivatives of the present invention in an airway hyper-responsiveness model induced by inhalation of ozone in guinea pigs. The test procedure will now be described.
# Guinea pigs were fasted for 18 hours or more. The animals were administered the test substance (30 mg/kg) and theophylline (100 mg/kg) one hour before ozone inhalation. For the non-stimulation group and the vehicle control group, vehicle (5 mL/kg) was administered similarly.
# The animals were put into an acryl-made chamber (29×19×25 cm), subjected to induction of ozone generated by an ozonizer (EUV3-XU; EBARA JITSUGYO CO, LTD.) and exposed for 2 hours. The ozone concentration in the chamber was approximately 3 ppm. It was confirmed every 30 minutes that this concentration was maintained during exposure by an ozone monitor (EG-5000; EBARA JITSUGYO CO, LTD.) (measured value: 2.53 to 3.40 ppm). For the non-stimulation group, the animals were exposed to a mixed gas (oxygen: 95%, carbonic acid gas: 5%) similarly. The ozone concentration at that time was also confirmed similarly (acceptable concentration: 0.01 ppm or less, measured value: 0.00 to 0.01 ppm).
# The measurement of airway hyper-responsiveness was performed 5 hours after the end of ozone exposure. The measurement of lung resistance (RLung) was performed according to the method of R. E. Giles et al. in the same manner as in Example 2. That is, the animals were anesthetized with Nembutal (Trade name: 50 mg/kg, i.p., sodium pentobarbital) and subjected to cannulation into esophagus and trachea. The esophagus and trachea cannulas were connected to a respirator (ventilation volume: 6 mL/kg, ventilation frequency: 60 times/min, SN-480-7) and the RLung after inhalation of methacholine (100 μg/mL, for 1.5 minutes) was measured by the respiratory function analyzer (PULMOS-II; M.I.P.S) through a flow sensor (connected to Validyle DF45F (for flow rate) and DP45P (for pressure)). The inhalation of methacholine was performed with an ultrasonic nebuliser (NE-U17; Omron Matsuzaka) connected to the respirator under artificial respiration.
# Used RLung represents 10 breaths having a stable value in a range from 1 to 30 breaths after initiation of each measurement for both before inhalation and during methacholine inhalation. The average of the RLung was calculated. The extreme values in RLung that occurred when animal moved during the measurement were excluded from the calculations.
# The percentage of increase of RLung was calculated by the following equation. Increase in lung resistance (%)=([RLung after inhalation of methacholine]−[RLung before administration])/[RLung before administration]×100
# [3] = test system: airway hyper-responsiveness induced by peroxynitrite; assay: Airway hyper-responsiveness model induced by exposure of peroxynitrite in guinea pigs (lung resistance after histamine); format: in vivo; conditions: 30 mg/kg orally one hour before peroxynitrite, histamine 32 μg/kg i.v. on 5-day, control group 759, non-stimulation group 382
# Description: This test was performed so as to investigate the pharmacological effect of the 7-aminoquinolinone derivative of the present invention on an airway hyper-responsiveness model induced by exposure of peroxynitrite in guinea pigs. The test procedure will now be described.
# Guinea pigs were fasted for 18 hours or more. The animals were administrated the test substance (30 mg/kg) orally one hour before exposure of peroxynitrite and the neck was dissected under ether anesthesia, and then the trachea was exposed. 0.1 mL of 1 mmol/L peroxynitrite was administered intratracheally into pulmonary side by pushing with air and, after the administration, the incision was sutured and disinfected.
# The measurement of airway hyper-responsiveness was performed on 5-day, taking the day of model preparation 0-day. Guinea pigs were fasted for 18 hours or more. The measurement of lung resistance; (RLung) was performed according to the method of R. E. Giles et al. (R. E. Giles, M. P. Finkel and J. Mazurowski: Use of an Analog On-Line Computer for the Evaluation of Pulmonary Resistance and Dynamic Compliance in the Anesthetized Dog. Arch. Int. Pharmacodyn. 194, 213-222 (1971)). That is, the animals were anesthetized with Nembutal (Trade name: 40 mg/kg, i.v., sodium pentobarbital) and subjected to cannulation into esophagus, trachea and jugular veins (for administration of histamine). The esophagus and trachea cannulas were connected to an artificial respirator (ventilation volume: 6 mL/kg, ventilation frequency: 60 times/min, SN-480-7) and the Rlung was measured after intravenous administration (dose of 0.1 mL/kg) of physiological saline solution and histamine (32 μg/kg) using a total plethysmograph system via flow sensor, connected to Validyne DF45F (for flow rate) and DP45P (for pressure). RLung before administration was determined by averaging values of any 3 out of 20 breaths, RLung after administration of physiological saline solution was determined by averaging values of any 3 out of 5 breaths, and RLung after administration of histamine was determined by averaging values of the following 3 breaths; 1) showing the maximum lung resistance, 2) taken just before and 3) taken just after the one with the maximum lung resistance, out less than 20 breaths. (The extreme values in RLung that occurred when animal moved during the measurement were excluded from the calculations.)
# The percentage of increase in lung resistance was calculated by the following equation. Increase in lung resistance (%)=([RLung after administration of histamine]−[RLung before administration])/[RLung before administration]×100
IC50 [1] [µM],Structure (SMILES),Increase in lung resistance (%) [2] [%],Increase in lung resistance (%) [3] [%]
0.8,CCCCCCOc1c(O)c2ccc(NC(=O)C=Cc3cc(OC)c(O)c(OC)c3)cc2n(C)c1=O [Compound 549],28,423
0.71,CCCCCCCCOc1c(O)c2ccc(NC(=O)C=Cc3cc(OC)c(O)c(OC)c3)cc2n(C)c1=O [Compound 551],22,416
0.98,COc1cc(C=CC(=O)Nc2ccc3c(O)c(OCC=C(C)CCC=C(C)C)c(=O)n(C)c3c2)cc(OC)c1O [Compound 553],28,417
0.89,CCCCCCOc1c(O)c(=O)n(C)c2cc(NC(=O)C=Cc3cc(OC)c(O)c(OC)c3)ccc12 [Compound 556],25,426
0.76,CCCCCCOc1c(O)c2ccc(NC(=O)C=Cc3ccc(O)c(OC)c3)cc2n(C)c1=O [Compound 581],30,430
